Source: ChEMBL document CHEMBL6114958, “Progress in the study of anti-Alzheimer's disease activity of pyrimidine-containing bioactive molecules” (Eur J Med Chem, 2025)

Assays:
Acetylcholinesterase [1] = target: T1, Acetylcholinesterase (Homo sapiens, UniProt P22303); assay: Inhibition of human AChE by Ellman's method
[2] = Inhibition of Calcium channel (unknown origin); parameters: species or system Homo sapiens
Acetylcholinesterase [3] = target: T1, Acetylcholinesterase; assay: Inhibition of AChE (unknown origin) using acetylthiocholine iodide as substrate by Ellman's method
[4] = target: High affinity cGMP-specific 3',5'-cyclic phosphodiesterase 9A (Homo sapiens, UniProt O76083); assay: Inhibition of PDE9 (unknown origin)
Histone deacetylase 1 = Histone deacetylase 1 (Homo sapiens, UniProt Q13547); assay: Inhibition of HDAC1 (unknown origin)
[5] = target: T2, Protein deacetylase HDAC6 (Homo sapiens, UniProt Q9UBN7); assay: Inhibition of HDAC6 (unknown origin)
T2 sequence (Q9UBN7 whole entry): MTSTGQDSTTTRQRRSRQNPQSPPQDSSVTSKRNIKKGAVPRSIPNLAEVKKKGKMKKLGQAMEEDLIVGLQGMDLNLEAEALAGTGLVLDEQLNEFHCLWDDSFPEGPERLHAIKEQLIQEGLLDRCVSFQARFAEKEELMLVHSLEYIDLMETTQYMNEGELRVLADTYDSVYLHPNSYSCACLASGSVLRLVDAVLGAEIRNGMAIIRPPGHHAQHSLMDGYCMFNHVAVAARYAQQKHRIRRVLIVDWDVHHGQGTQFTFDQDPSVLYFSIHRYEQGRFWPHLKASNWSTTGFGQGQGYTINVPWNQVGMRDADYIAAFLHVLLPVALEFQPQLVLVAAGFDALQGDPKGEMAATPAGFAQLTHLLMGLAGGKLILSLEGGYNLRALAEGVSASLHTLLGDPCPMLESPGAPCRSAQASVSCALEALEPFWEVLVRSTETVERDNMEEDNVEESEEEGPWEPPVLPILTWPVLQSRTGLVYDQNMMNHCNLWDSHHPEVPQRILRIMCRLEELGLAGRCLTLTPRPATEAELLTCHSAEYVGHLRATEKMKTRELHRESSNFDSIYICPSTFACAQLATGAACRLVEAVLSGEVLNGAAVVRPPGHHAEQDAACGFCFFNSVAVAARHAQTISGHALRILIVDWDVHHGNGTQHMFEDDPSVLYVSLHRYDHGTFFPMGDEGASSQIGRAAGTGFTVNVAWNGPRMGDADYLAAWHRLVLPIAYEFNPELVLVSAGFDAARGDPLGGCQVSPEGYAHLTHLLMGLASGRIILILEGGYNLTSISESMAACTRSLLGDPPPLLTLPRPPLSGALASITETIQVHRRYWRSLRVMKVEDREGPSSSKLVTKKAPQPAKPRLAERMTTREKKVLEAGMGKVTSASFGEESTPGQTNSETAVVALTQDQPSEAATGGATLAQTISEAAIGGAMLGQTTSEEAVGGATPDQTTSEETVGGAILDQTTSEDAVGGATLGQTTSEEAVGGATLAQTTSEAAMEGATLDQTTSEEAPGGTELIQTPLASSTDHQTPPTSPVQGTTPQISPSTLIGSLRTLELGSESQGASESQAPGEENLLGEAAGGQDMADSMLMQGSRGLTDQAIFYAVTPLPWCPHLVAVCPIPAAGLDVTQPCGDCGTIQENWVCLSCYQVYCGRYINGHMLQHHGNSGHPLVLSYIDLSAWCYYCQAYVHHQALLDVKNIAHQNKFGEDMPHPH

Histone deacetylase 2 = Histone deacetylase 2 (Homo sapiens, UniProt Q92769); assay: Inhibition of HDAC2 (unknown origin)
[6] = target: T3, Amine oxidase [flavin-containing] B (Homo sapiens, UniProt P27338); assay: Inhibition of recombinant human MAO-B assessed as fluorescence measured after 30 mins by Amplex Red reagent assay
T3 sequence (P27338 whole entry): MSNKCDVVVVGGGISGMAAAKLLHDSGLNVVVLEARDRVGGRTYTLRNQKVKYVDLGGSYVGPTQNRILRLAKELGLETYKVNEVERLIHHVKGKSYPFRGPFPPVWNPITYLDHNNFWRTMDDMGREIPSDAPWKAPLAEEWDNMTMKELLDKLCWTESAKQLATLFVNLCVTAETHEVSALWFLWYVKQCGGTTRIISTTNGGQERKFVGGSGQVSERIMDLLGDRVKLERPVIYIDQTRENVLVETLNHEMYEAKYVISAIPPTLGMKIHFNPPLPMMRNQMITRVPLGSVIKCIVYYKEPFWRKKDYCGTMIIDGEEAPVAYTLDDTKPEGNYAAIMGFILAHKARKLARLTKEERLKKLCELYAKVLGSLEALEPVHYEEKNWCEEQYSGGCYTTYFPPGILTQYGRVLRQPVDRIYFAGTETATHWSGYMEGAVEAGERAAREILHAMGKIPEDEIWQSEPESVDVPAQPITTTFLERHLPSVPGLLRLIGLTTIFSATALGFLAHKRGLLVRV

[7] = target: T4, Amine oxidase [flavin-containing] A (Homo sapiens, UniProt P21397); assay: Inhibition of recombinant human MAO-A assessed as fluorescence measured after 30 mins by Amplex Red reagent assay
T4 sequence (P21397 whole entry): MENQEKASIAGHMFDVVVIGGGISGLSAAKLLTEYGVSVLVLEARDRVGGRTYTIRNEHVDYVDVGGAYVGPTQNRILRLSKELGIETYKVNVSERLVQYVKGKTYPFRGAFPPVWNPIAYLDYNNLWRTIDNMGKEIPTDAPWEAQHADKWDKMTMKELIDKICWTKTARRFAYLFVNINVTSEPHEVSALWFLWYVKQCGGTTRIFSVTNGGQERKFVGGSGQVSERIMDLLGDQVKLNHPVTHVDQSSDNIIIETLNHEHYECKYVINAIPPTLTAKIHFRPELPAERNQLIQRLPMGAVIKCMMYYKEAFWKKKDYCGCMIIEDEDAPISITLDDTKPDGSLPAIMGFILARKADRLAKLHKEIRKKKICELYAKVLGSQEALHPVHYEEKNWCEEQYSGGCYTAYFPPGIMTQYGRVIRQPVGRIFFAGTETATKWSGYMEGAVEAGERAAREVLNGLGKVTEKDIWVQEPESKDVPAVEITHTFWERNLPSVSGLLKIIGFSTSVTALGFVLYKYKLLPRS

Acetylcholinesterase [8] = target: T1, Acetylcholinesterase; assay: Inhibition of Acetylcholinesterase (unknown origin) activity measured after 15 mins by Amplex Red reagent assay
Acetylcholinesterase [9] = target: T1, Acetylcholinesterase; assay: Inhibition of recombinant human AChE using acetylthiocholine iodide as substrate by Ellman's method
[10] = Inhibition of Cysteine asparaginase (unknown origin); parameters: species or system Homo sapiens
Cholinesterase [11] = target: T5, Cholinesterase (Homo sapiens, UniProt P06276); assay: Inhibition of human BChE by Ellman's method
[12] = target: Acetylcholinesterase (Electrophorus electricus) (UniProt O42275); assay: Inhibition of electric eel AChE using acetylthiocholine as substrate at 9 uM by Ellman's spectrophotometric method relative to control
Cholinesterase [13] = target: T5, Cholinesterase; assay: Inhibition of BChE (unknown origin) using butyrylthiocholine iodide as substrate by Ellman's method
Cholinesterase [14] = target: Cholinesterase (Equus caballus, UniProt P81908); assay: Inhibition of equine serum BChE using butyrylthiocholine iodide measured after 25 mins by Ellman's spectrophotometric method
[15] = target: T4, Amine oxidase [flavin-containing] A; assay: Inhibition of human MAO-A
[16] = target: T3, Amine oxidase [flavin-containing] B; assay: Inhibition of human MAO-B
Acetylcholinesterase [17] = target: T6, Acetylcholinesterase (Electrophorus electricus, UniProt O42275); assay: Inhibition of electric eel AChE
Beta-secretase 1 = Beta-secretase 1 (Homo sapiens, UniProt P56817); assay: Inhibition of BACE1 (unknown origin)
Cholinesterase [18] = target: T5, Cholinesterase; assay: Inhibition of BChE (unknown origin)
Acetylcholinesterase [19] = target: T1, Acetylcholinesterase; assay: Inhibition of AChE (unknown origin)
Acetylcholinesterase [20] = target: T6, Acetylcholinesterase; assay: Inhibition of electric eel AChE using ACTI as substrate measured after 30 mins by spectrometric analysis

T6 sequence (O42275 whole entry): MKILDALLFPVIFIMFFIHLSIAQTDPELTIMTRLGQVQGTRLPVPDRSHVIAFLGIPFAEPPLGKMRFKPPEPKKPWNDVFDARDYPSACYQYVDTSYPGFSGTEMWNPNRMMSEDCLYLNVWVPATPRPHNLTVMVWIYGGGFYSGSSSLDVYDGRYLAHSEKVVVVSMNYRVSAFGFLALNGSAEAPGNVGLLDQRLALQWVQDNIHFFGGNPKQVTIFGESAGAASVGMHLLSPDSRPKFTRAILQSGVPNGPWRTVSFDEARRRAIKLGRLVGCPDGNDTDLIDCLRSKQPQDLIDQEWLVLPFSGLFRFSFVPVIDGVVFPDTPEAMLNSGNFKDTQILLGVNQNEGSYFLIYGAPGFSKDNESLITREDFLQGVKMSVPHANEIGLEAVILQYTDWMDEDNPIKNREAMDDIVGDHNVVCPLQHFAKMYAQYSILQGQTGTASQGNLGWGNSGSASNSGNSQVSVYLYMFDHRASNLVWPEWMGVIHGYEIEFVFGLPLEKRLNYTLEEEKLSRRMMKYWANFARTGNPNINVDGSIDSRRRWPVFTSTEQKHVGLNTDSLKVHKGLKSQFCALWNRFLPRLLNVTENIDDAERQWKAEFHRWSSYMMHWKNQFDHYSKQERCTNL
T5 sequence (P06276 whole entry): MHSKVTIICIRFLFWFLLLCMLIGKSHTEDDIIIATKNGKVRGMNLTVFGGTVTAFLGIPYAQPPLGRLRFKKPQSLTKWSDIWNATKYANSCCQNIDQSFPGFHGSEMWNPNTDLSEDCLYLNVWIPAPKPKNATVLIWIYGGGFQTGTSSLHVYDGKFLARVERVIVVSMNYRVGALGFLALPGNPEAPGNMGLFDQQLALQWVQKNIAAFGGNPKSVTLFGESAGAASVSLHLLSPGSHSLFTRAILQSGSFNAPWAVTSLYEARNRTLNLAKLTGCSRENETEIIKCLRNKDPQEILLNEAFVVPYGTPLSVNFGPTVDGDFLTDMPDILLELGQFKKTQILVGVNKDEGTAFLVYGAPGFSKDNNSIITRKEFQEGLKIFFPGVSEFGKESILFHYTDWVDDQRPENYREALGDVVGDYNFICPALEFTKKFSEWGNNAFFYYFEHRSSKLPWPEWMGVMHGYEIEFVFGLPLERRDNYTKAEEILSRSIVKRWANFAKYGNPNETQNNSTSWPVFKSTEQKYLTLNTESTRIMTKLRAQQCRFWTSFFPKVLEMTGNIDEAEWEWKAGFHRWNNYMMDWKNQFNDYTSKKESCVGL
Sequence of High affinity cGMP-specific 3',5'-cyclic phosphodiesterase 9A (O76083 whole entry): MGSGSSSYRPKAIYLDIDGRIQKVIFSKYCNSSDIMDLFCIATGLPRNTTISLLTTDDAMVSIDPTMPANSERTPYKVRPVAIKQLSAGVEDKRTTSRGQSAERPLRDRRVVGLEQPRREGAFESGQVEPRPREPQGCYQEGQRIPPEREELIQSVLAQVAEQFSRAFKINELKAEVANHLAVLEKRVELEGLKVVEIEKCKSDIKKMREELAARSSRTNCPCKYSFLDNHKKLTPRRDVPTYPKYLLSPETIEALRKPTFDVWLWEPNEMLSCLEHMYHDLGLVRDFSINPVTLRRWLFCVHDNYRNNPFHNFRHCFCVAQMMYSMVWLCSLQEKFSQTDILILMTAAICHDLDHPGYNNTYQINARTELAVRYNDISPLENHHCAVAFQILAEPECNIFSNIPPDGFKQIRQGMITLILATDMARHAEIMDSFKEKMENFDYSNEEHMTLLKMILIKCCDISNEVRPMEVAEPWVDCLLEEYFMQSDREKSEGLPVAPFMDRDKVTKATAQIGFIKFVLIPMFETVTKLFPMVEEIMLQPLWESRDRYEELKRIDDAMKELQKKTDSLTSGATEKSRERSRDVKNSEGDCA
Sequence of Histone deacetylase 2 (Q92769 whole entry): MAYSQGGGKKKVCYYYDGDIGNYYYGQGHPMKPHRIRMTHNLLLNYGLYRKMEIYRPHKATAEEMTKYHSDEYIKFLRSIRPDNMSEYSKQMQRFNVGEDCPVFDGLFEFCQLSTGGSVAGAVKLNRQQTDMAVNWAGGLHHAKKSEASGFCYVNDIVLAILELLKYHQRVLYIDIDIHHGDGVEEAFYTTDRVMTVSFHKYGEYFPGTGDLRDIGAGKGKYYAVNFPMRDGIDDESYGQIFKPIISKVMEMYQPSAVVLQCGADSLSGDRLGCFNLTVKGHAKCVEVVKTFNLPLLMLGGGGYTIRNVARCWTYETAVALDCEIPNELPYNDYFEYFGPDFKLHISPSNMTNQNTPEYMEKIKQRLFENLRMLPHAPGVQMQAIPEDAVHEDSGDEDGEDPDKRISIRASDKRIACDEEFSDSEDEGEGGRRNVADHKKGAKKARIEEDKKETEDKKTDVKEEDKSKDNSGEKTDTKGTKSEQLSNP
T1 sequence (P22303 whole entry): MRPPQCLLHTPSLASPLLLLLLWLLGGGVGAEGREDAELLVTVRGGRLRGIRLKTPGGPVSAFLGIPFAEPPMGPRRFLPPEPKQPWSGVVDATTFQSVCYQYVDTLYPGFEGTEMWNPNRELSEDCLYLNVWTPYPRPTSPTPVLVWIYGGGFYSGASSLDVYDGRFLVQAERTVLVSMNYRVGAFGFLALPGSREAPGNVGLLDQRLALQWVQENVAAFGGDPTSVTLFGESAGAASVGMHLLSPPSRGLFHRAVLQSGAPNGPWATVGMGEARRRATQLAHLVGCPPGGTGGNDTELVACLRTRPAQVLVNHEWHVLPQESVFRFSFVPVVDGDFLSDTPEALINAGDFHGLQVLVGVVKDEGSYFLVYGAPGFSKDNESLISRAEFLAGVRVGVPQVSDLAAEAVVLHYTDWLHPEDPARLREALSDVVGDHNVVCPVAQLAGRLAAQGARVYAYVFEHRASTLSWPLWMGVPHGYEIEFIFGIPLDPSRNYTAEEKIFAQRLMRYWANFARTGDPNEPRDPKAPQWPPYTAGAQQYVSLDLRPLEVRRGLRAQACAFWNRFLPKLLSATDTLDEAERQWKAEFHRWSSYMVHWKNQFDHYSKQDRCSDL
Sequence of Histone deacetylase 1 (Q13547 whole entry): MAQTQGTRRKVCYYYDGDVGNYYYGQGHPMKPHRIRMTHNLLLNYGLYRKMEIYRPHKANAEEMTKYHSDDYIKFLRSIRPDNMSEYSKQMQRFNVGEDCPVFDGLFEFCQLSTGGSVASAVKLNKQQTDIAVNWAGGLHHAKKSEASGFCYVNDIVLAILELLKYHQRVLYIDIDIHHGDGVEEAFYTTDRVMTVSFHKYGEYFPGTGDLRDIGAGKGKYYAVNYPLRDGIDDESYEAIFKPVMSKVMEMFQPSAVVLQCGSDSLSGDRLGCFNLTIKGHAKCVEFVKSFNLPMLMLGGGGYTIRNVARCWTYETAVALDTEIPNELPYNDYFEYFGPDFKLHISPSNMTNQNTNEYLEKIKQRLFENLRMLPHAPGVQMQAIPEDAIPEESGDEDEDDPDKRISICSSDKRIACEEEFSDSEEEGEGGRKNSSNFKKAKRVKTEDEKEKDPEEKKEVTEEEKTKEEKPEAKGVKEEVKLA
Sequence of Acetylcholinesterase (Electrophorus electricus) (O42275 24-633 limits assumed): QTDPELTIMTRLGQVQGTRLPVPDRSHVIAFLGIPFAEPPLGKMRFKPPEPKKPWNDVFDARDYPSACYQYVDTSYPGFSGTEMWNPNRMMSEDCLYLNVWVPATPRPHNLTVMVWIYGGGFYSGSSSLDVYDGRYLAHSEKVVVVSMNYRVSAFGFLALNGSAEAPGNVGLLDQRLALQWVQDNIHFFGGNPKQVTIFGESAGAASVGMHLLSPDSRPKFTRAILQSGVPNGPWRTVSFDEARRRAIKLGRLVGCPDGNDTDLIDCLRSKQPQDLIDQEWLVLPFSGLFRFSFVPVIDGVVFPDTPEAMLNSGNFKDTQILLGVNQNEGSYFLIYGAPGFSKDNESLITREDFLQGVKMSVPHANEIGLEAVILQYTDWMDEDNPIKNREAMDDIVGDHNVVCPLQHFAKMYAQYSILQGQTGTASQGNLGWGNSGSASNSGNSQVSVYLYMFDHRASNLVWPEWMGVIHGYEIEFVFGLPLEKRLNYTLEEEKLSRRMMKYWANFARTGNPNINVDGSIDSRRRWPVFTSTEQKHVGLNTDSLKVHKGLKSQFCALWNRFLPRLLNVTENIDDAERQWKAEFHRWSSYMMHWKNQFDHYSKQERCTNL
Sequence of Cholinesterase (Equus caballus, UniProt P81908) (P81908 whole entry): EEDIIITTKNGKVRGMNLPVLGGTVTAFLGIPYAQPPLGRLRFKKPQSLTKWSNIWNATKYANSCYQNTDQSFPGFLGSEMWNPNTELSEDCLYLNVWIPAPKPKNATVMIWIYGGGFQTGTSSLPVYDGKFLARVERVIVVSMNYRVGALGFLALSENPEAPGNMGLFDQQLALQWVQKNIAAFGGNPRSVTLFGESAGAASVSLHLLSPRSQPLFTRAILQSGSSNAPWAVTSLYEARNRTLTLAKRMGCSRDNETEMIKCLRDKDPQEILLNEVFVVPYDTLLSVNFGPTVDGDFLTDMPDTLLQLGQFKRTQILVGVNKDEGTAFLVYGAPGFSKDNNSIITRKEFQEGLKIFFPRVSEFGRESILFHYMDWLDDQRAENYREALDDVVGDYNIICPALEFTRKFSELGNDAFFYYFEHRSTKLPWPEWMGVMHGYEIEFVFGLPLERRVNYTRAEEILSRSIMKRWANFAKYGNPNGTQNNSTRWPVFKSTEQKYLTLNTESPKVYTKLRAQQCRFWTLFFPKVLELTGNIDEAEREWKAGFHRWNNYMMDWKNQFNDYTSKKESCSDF

Compound: N#CC1C(N)N2CCCNC2C(C#N)C12C(=O)Nc1ccccc12 (stereo not drawn)
- IC50 (Acetylcholinesterase [1]): 4.04 µM

Compound: CCOC(=O)C1=C(C)N(CCC2CCN(Cc3ccccc3)CC2)C(=O)NC1c1coc2c(Cl)cc(Cl)cc2c1=O (stereo not drawn)
- IC50 [2]: 1.4 µM

Compound: COc1cccc(-c2nc(SCCCSc3nc(N)c(C#N)c(-c4cccc(OC)c4)n3)nc(N)c2C#N)c1
- IC50 (Acetylcholinesterase [3]): 5.72 µM

Compound: CC(c1nc2c(cnn2C2CCCC2)c(=O)[nH]1)N1CC(Cc2ccc(C(=O)Nc3ccccc3N)cc2)C1 (stereo not drawn)
- IC50 [4]: 0.057 µM
- IC50 (Histone deacetylase 1): 0.099 µM
- IC50 [5]: > 10 µM
- IC50 (Histone deacetylase 2): 0.545 µM

Compound: C#CCOc1ccc(-c2cc(-c3ccc(OCCN4CCOCC4)cc3)nc(N)n2)cc1
- IC50 [6]: > 50 µM
- IC50 [7]: 0.018 µM
- IC50 (Acetylcholinesterase [8]): 30.5 µM

Compound: CCN(CCCCCn1c(C)cc(=O)n(CCCCCN(CC)Cc2ccccc2C#N)c1=O)Cc1ccccc1C#N
- IC50 (Acetylcholinesterase [9]): 7.3 µM

Compound: CC1(C)CC(=O)c2c(N)nc(Nc3ccccc3)nc2C1
- IC50 [10]: 0.022 µM

Compound: CCN(CCCCCn1c(C)cc(=O)n(CCCCCN(CC)Cc2cccc(C(=O)OC)c2)c1=O)Cc1cccc(C(=O)OC)c1
- IC50 (Acetylcholinesterase [9]): 0.29 µM

Compound: N#CC1C(N)N2CCCNC2C(C#N)C12C(=O)Nc1ccc(Br)cc12 (stereo not drawn)
- IC50 (Cholinesterase [11]): 17.5 µM

Compound: O=C(NCCCCCCNc1ncccn1)c1ccccc1
- inhibition [12]: 2.5%

Compound: N#Cc1c(N)nc(SCCCSc2nc(N)c(C#N)c(-c3ccc(Br)cc3)n2)nc1-c1ccc(Br)cc1
- IC50 (Cholinesterase [13]): 12.2 µM

Compound: CCN(CC)CCCNC1NC(c2ccccc2)=NC2=C1C/C(C(=O)OC)=C\N(C(C)C)CC2 (stereo not drawn)
- IC50 (Cholinesterase [14]): 0.105 µM

Compound: C#CCCCOc1ccc(-c2cc(-c3ccc(OCCN4CCCC4)cc3)nc(-c3ccccc3)n2)cc1
- IC50 [15]: 0.75 µM
- IC50 [16]: > 50 µM
- IC50 (Acetylcholinesterase [17]): 2.19 µM

Compound: CC(c1nc2c(cnn2C2CCCC2)c(=O)[nH]1)C1CC(Cc2ccc(C(=O)NO)cc2)C1 (stereo not drawn)
- IC50 [4]: 0.107 µM
- IC50 (Histone deacetylase 1): 0.593 µM
- IC50 [5]: 0.04 µM
- IC50 (Histone deacetylase 2): 3.53 µM

Compound: C#CCCCOc1ccc(-c2cc(-c3ccc(OCCN4CCOCC4)cc3)nc(-c3ccccc3)n2)cc1
- IC50 [15]: 0.74 µM
- IC50 [16]: 8.6 µM
- IC50 (Acetylcholinesterase [17]): 17.5 µM

Compound: c1ccc(CNCCCCCCNc2ncccn2)cc1
- inhibition [12]: 92.9%

Compound: COc1cccc(-c2csc(NC(=O)CSc3nc(N)cc(N)n3)n2)c1
- IC50 (Beta-secretase 1): 1.4 µM

Compound: Cc1cccc(-c2nccc(N3CCOCC3)n2)c1
- IC50 (Cholinesterase [18]): 2.5 µM
- IC50 (Acetylcholinesterase [19]): 0.43 µM

Compound: CN(CCCOc1ccc([N+](=O)[O-])cc1)C(=O)c1cnc(N2CCN(c3ccc(C(=O)N4CCOCC4)cc3[N+](=O)[O-])CC2)nc1
- IC50 (Acetylcholinesterase [9]): 0.9 µM

Compound: COc1cccc(C2C3=C(CCCC3=O)Oc3nc(C)[nH]c(=O)c32)c1 (stereo not drawn)
- IC50 (Acetylcholinesterase [20]): 6.5 µM

Compound: CCOC(=O)C1=C(C)N=C2SC(c3ccc([N+](=O)[O-])cc3)=NN2C1c1ccc(C=O)cn1 (stereo not drawn)
- IC50 (Acetylcholinesterase [19]): 0.082 µM

Compound: Cc1ccc(O)c(CNc2c(N)n(C)c(=O)n(C)c2=O)c1
- IC50 (Acetylcholinesterase [1]): 0.00465 µM

Compound: COC(=O)/C1=C/N(C(C)C)CCc2nc(-c3ccccc3)[nH]c(=O)c2C1
- IC50 (Cholinesterase [14]): 1.3 µM

Compound: C#CCNc1ccc(-c2cc(-c3ccc(OCCN4CCOCC4)cc3)nc(N)n2)cc1
- IC50 [6]: 0.04 µM
- IC50 [7]: 9.94 µM
- IC50 (Acetylcholinesterase [8]): 7.21 µM

Compound: C[C@@H]1CN(Cc2ccc(CC(=O)CNO)cc2)C[C@H]1c1nc2c(cnn2C2CCOCC2)c(=O)[nH]1
- IC50 [4]: 0.008 µM
- IC50 (Histone deacetylase 1): 0.138 µM
- IC50 [5]: 0.508 µM
- IC50 (Histone deacetylase 2): 1.25 µM
